Legend:
Assay in all cases: relative viability (nuclei count vs DMSO), 5 days (fraction); higher = more cells survive
A-427 = tested on: A-427
How it was run: (§1)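 Medians of duplicate plates are given as relative viability. That measure is the nuclei count in treated wells divided by the count in vehicle wells. Counts were taken on 4× images of lung cancer cell lines in 1536-well plates, 5 days after pin-tool dosing the day after seeding with one drug alone or a fixed anchor-drug dose plus five library-drug doses (not always all listed) in √10 steps.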

NCI-H520 = tested on: NCI-H520
How it was run: as §1

201T = tested on: 201T
How it was run: as §1

H3255 = tested on: H3255
How it was run: as §1

NCI-H596 = tested on: NCI-H596
How it was run: as §1

ABC-1 = tested on: ABC-1
How it was run: as §1

BEN = tested on: BEN
How it was run: as §1

NCI-H1651 = tested on: NCI-H1651
How it was run: as §1

NCI-H2023 = tested on: NCI-H2023
How it was run: as §1

LCLC-97TM1 = tested on: LCLC-97TM1
How it was run: as §1

NCI-H1650 = tested on: NCI-H1650
How it was run: as §1

LC-2-ad = tested on: LC-2-ad
How it was run: as §1

NCI-H2087 = tested on: NCI-H2087
How it was run: as §1

NCI-H460 = tested on: NCI-H460
How it was run: as §1

NCI-H441 = tested on: NCI-H441
How it was run: as §1

NCI-H661 = tested on: NCI-H661
How it was run: as §1

NCI-H727 = tested on: NCI-H727
How it was run: as §1

PC-3 [JPC-3] = tested on: PC-3 [JPC-3]
How it was run: as §1

NCI-H650 = tested on: NCI-H650
How it was run: as §1

HCC-15 = tested on: HCC-15
How it was run: as §1

NCI-H1944 = tested on: NCI-H1944
How it was run: as §1

NCI-H1915 = tested on: NCI-H1915
How it was run: as §1

CAL-12T = tested on: CAL-12T
How it was run: as §1

NCI-H1792 = tested on: NCI-H1792
How it was run: as §1

CC(C)Oc1cc(Nc2nc(N[C@@H](C)c3ccc(F)cn3)ncc2Cl)n[nH]1 [AZ23] + Cc1nc(Nc2ncc(C(=O)Nc3c(C)cccc3Cl)s2)cc(N2CCN(CCO)CC2)n1 [Dasatinib] (partner 0.075 µM)
relative viability (A-427; first compound 0.01 µM): 0.701 | relative viability (A-427; first compound 0.03162 µM): 0.862 | relative viability (A-427; first compound 0.3162 µM): 0.684 | relative viability (NCI-H520; first compound 0.01 µM): 0.194 | relative viability (NCI-H520; first compound 0.03162 µM): 0.24 | relative viability (NCI-H520; first compound 0.3162 µM): 0.162 | relative viability (201T; first compound 0.01 µM): 0.506 | relative viability (201T; first compound 0.03162 µM): 0.614 | relative viability (201T; first compound 0.3162 µM): 0.569 | relative viability (H3255; first compound 0.01 µM): 0.364 | relative viability (H3255; first compound 0.03162 µM): 0.66 | relative viability (H3255; first compound 0.3162 µM): 0.418 | relative viability (NCI-H596; first compound 0.01 µM): 0.52 | relative viability (NCI-H596; first compound 0.03162 µM): 0.616 | relative viability (NCI-H596; first compound 0.3162 µM): 0.557 | relative viability (ABC-1; first compound 0.01 µM): 0.583 | relative viability (ABC-1; first compound 0.03162 µM): 0.766 | relative viability (ABC-1; first compound 0.3162 µM): 0.546 | relative viability (BEN; first compound 0.01 µM): 0.309 | relative viability (BEN; first compound 0.03162 µM): 0.398 | relative viability (BEN; first compound 0.3162 µM): 0.304 | relative viability (NCI-H1651; first compound 0.03162 µM): 0.471 | relative viability (NCI-H1651; first compound 0.3162 µM): 0.386 | relative viability (NCI-H2023; first compound 0.03162 µM): 0.627 | relative viability (NCI-H2023; first compound 0.3162 µM): 0.57 | relative viability (LCLC-97TM1; first compound 0.01 µM): 0.924 | relative viability (LCLC-97TM1; first compound 0.03162 µM): 0.889 | relative viability (LCLC-97TM1; first compound 0.3162 µM): 0.829 | relative viability (NCI-H1650; first compound 0.03162 µM): 0.33 | relative viability (NCI-H1650; first compound 0.3162 µM): 0.299 | relative viability (LC-2-ad; first compound 0.01 µM): 0.569 | relative viability (LC-2-ad; first compound 0.03162 µM): 0.588 | relative viability (LC-2-ad; first compound 0.3162 µM): 0.564 | relative viability (NCI-H2087; first compound 0.01 µM): 1.29 | relative viability (NCI-H2087; first compound 0.03162 µM): 1.04 | relative viability (NCI-H2087; first compound 0.3162 µM): 0.751 | relative viability (NCI-H460; first compound 0.01 µM): 0.295 | relative viability (NCI-H460; first compound 0.03162 µM): 0.592 | relative viability (NCI-H460; first compound 0.3162 µM): 0.503 | relative viability (NCI-H441; first compound 0.01 µM): 0.683 | relative viability (NCI-H441; first compound 0.03162 µM): 0.745 | relative viability (NCI-H441; first compound 0.3162 µM): 0.699 | relative viability (NCI-H661; first compound 0.01 µM): 0.948 | relative viability (NCI-H661; first compound 0.03162 µM): 1.02 | relative viability (NCI-H661; first compound 0.3162 µM): 0.847 | relative viability (NCI-H727; first compound 0.01 µM): 0.393 | relative viability (NCI-H727; first compound 0.03162 µM): 0.402 | relative viability (NCI-H727; first compound 0.3162 µM): 0.362 | relative viability (PC-3 [JPC-3]; first compound 0.01 µM): 1.13 | relative viability (PC-3 [JPC-3]; first compound 0.03162 µM): 1.08 | relative viability (PC-3 [JPC-3]; first compound 0.3162 µM): 1.01 | relative viability (NCI-H650; first compound 0.01 µM): 0.441 | relative viability (NCI-H650; first compound 0.03162 µM): 0.46 | relative viability (NCI-H650; first compound 0.3162 µM): 0.48 | relative viability (HCC-15; first compound 0.01 µM): 0.642 | relative viability (HCC-15; first compound 0.03162 µM): 0.712 | relative viability (HCC-15; first compound 0.3162 µM): 0.575 | relative viability (NCI-H1944; first compound 0.01 µM): 0.198 | relative viability (NCI-H1944; first compound 0.03162 µM): 0.246 | relative viability (NCI-H1944; first compound 0.3162 µM): 0.208 | relative viability (NCI-H1915; first compound 0.01 µM): 0.33 | relative viability (NCI-H1915; first compound 0.03162 µM): 0.342 | relative viability (NCI-H1915; first compound 0.3162 µM): 0.29 | relative viability (CAL-12T; first compound 0.03162 µM): 0.363 | relative viability (CAL-12T; first compound 0.3162 µM): 0.221 | relative viability (NCI-H1792; first compound 0.01 µM): 0.804 | relative viability (NCI-H1792; first compound 0.03162 µM): 1.16 | relative viability (NCI-H1792; first compound 0.3162 µM): 0.672

CC(C)Oc1cc(Nc2nc(N[C@@H](C)c3ccc(F)cn3)ncc2Cl)n[nH]1 [AZ23] + N=C(N)NC(=N)NCCc1ccccc1 [Phenformin] (partner 250 µM)
relative viability (A-427; first compound 0.01 µM): 0.301 | relative viability (A-427; first compound 0.03162 µM): 0.365 | relative viability (A-427; first compound 0.3162 µM): 0.281 | relative viability (NCI-H520; first compound 0.01 µM): 0.508 | relative viability (NCI-H520; first compound 0.03162 µM): 0.643 | relative viability (NCI-H520; first compound 0.3162 µM): 0.23 | relative viability (201T; first compound 0.01 µM): 0.539 | relative viability (201T; first compound 0.03162 µM): 0.438 | relative viability (201T; first compound 0.3162 µM): 0.486 | relative viability (H3255; first compound 0.01 µM): 0.323 | relative viability (H3255; first compound 0.03162 µM): 0.364 | relative viability (H3255; first compound 0.3162 µM): 0.327 | relative viability (NCI-H596; first compound 0.01 µM): 0.787 | relative viability (NCI-H596; first compound 0.03162 µM): 0.87 | relative viability (NCI-H596; first compound 0.3162 µM): 0.739 | relative viability (ABC-1; first compound 0.01 µM): 0.211 | relative viability (ABC-1; first compound 0.03162 µM): 0.221 | relative viability (ABC-1; first compound 0.3162 µM): 0.236 | relative viability (BEN; first compound 0.01 µM): 0.292 | relative viability (BEN; first compound 0.03162 µM): 0.282 | relative viability (BEN; first compound 0.3162 µM): 0.268 | relative viability (NCI-H1651; first compound 0.03162 µM): 0.332 | relative viability (NCI-H1651; first compound 0.3162 µM): 0.356 | relative viability (NCI-H2023; first compound 0.03162 µM): 0.506 | relative viability (NCI-H2023; first compound 0.3162 µM): 0.481 | relative viability (LCLC-97TM1; first compound 0.01 µM): 0.502 | relative viability (LCLC-97TM1; first compound 0.03162 µM): 0.485 | relative viability (LCLC-97TM1; first compound 0.3162 µM): 0.417 | relative viability (NCI-H1650; first compound 0.03162 µM): 0.537 | relative viability (NCI-H1650; first compound 0.3162 µM): 0.405 | relative viability (LC-2-ad; first compound 0.01 µM): 0.544 | relative viability (LC-2-ad; first compound 0.03162 µM): 0.611 | relative viability (LC-2-ad; first compound 0.3162 µM): 0.528 | relative viability (NCI-H2087; first compound 0.01 µM): 0.645 | relative viability (NCI-H2087; first compound 0.03162 µM): 0.449 | relative viability (NCI-H2087; first compound 0.3162 µM): 0.458 | relative viability (NCI-H460; first compound 0.01 µM): 0.335 | relative viability (NCI-H460; first compound 0.03162 µM): 0.601 | relative viability (NCI-H460; first compound 0.3162 µM): 0.549 | relative viability (NCI-H441; first compound 0.01 µM): 0.865 | relative viability (NCI-H441; first compound 0.03162 µM): 0.841 | relative viability (NCI-H441; first compound 0.3162 µM): 0.906 | relative viability (NCI-H661; first compound 0.01 µM): 0.293 | relative viability (NCI-H661; first compound 0.03162 µM): 0.257 | relative viability (NCI-H661; first compound 0.3162 µM): 0.241 | relative viability (NCI-H727; first compound 0.01 µM): 0.571 | relative viability (NCI-H727; first compound 0.03162 µM): 0.552 | relative viability (NCI-H727; first compound 0.3162 µM): 0.485 | relative viability (PC-3 [JPC-3]; first compound 0.01 µM): 0.502 | relative viability (PC-3 [JPC-3]; first compound 0.03162 µM): 0.453 | relative viability (PC-3 [JPC-3]; first compound 0.3162 µM): 0.476 | relative viability (NCI-H650; first compound 0.01 µM): 0.432 | relative viability (NCI-H650; first compound 0.03162 µM): 0.461 | relative viability (NCI-H650; first compound 0.3162 µM): 0.466 | relative viability (HCC-15; first compound 0.01 µM): 0.555 | relative viability (HCC-15; first compound 0.03162 µM): 0.537 | relative viability (HCC-15; first compound 0.3162 µM): 0.494 | relative viability (NCI-H1944; first compound 0.01 µM): 0.197 | relative viability (NCI-H1944; first compound 0.03162 µM): 0.225 | relative viability (NCI-H1944; first compound 0.3162 µM): 0.219 | relative viability (NCI-H1915; first compound 0.01 µM): 0.4 | relative viability (NCI-H1915; first compound 0.03162 µM): 0.373 | relative viability (NCI-H1915; first compound 0.3162 µM): 0.372 | relative viability (CAL-12T; first compound 0.03162 µM): 0.591 | relative viability (CAL-12T; first compound 0.3162 µM): 0.524 | relative viability (NCI-H1792; first compound 0.03162 µM): 0.397 | relative viability (NCI-H1792; first compound 0.3162 µM): 0.239

Reference: the supplement of paper PMC10307832
